# Measurements from article PMC9095466 (Nature, 2022).
# Several values for one entry are separate records, joined by “and”; a condition that tells them apart may be missing. Equal entries are not always repeated. Where two headings read alike, the source gives them in different places.
# Tests used:
# [1] = target: T1, Recombinant human furin (Homo sapiens, UniProt P09958); experiment: Protease selectivity, Ki on recombinant protease; type: biochemical
# T1 construct: purchased Bio-Techne
# [2] = target: T2, human cathepsin L (Homo sapiens, UniProt P07711); experiment: Protease selectivity, Ki on protease; type: biochemical
# T2 construct: purchased Bio-Techne
# T2 sequence (P07711 114-333): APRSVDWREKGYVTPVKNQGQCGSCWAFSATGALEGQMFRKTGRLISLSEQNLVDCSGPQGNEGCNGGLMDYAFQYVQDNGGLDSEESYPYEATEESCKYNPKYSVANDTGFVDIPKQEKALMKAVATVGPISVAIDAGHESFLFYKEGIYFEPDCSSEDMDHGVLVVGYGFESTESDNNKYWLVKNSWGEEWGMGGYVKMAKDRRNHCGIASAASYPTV
# [3] = target: T3, human thrombin (Homo sapiens, UniProt P00734); experiment: Protease selectivity, Ki on protease; type: biochemical
# T3 construct: purchased MilliporeSigma
# [4] = target: T4, Recombinant human matriptase (Homo sapiens, UniProt Q9Y5Y6); experiment: Protease selectivity, Ki on recombinant protease; type: biochemical; details: single experiments N1-N3; Figure 1D; read-out: Individual Ki, Matriptase
# T4 construct: made in house
# T4 sequence (Q9Y5Y6 1-855): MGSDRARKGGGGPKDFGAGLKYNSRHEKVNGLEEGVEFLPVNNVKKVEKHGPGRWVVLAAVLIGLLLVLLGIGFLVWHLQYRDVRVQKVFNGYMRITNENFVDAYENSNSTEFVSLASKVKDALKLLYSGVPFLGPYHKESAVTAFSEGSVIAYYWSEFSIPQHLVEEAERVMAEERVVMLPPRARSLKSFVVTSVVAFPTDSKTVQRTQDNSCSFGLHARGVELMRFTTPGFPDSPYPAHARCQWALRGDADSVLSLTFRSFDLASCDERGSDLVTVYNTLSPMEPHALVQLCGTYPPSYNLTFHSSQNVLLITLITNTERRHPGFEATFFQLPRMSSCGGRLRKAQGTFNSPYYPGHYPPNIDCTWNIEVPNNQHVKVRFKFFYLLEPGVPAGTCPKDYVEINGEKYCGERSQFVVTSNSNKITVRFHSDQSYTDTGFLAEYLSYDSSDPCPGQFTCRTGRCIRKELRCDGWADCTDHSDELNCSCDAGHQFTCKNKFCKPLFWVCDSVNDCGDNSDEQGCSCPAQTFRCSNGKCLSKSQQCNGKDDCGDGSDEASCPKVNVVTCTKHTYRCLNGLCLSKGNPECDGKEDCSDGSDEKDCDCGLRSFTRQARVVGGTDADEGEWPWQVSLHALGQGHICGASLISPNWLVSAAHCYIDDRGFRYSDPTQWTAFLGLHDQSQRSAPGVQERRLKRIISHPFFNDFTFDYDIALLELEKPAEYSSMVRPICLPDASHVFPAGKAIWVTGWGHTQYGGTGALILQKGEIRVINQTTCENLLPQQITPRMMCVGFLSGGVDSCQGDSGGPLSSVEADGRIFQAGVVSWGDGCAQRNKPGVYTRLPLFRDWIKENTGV
# [5] = target: T5, Recombinant human hepsin (Homo sapiens, UniProt P05981); experiment: Protease selectivity, Ki on recombinant protease; type: biochemical; details: single experiments N1-N3; Figure 1D; read-out: Individual Ki, Hepsin
# T5 construct: made in house
# T5 sequence (P05981 whole entry): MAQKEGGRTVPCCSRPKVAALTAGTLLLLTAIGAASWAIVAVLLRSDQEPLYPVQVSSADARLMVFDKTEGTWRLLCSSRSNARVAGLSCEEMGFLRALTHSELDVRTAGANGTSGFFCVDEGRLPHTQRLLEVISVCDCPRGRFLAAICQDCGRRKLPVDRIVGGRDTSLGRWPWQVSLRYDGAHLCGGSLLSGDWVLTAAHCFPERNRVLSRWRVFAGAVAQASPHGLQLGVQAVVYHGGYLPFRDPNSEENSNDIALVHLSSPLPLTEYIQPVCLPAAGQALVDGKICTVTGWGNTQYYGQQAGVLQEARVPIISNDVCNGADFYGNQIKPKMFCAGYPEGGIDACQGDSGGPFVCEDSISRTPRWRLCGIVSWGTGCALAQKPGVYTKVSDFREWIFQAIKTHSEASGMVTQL
# [6] = target: T6, Recombinant human DESC1 (Homo sapiens, UniProt Q9UL52); experiment: Protease selectivity, Ki on recombinant protease; type: biochemical
# T6 construct: made in house
# T6 sequence (Q9UL52 1-423): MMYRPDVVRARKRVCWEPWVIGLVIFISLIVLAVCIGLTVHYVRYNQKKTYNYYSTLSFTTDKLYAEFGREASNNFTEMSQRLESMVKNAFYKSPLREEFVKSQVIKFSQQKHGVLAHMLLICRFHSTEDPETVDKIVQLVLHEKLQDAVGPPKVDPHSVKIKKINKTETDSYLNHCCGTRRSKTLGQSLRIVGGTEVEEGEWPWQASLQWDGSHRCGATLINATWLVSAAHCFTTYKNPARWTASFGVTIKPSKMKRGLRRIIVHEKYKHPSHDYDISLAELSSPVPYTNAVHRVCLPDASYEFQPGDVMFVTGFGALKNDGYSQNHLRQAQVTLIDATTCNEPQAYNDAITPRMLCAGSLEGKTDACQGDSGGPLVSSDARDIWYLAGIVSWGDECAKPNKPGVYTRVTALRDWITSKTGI
# [7] = tested on: SARS-CoV-2 lineage B strain (VIDO); experiment: microbe, parasite or virus in culture; type: cell-based
# [8] = target: human TMPRSS2 (Homo sapiens, UniProt O15393); experiment: cell-based
# Sequence of human TMPRSS2 (O15393 whole entry): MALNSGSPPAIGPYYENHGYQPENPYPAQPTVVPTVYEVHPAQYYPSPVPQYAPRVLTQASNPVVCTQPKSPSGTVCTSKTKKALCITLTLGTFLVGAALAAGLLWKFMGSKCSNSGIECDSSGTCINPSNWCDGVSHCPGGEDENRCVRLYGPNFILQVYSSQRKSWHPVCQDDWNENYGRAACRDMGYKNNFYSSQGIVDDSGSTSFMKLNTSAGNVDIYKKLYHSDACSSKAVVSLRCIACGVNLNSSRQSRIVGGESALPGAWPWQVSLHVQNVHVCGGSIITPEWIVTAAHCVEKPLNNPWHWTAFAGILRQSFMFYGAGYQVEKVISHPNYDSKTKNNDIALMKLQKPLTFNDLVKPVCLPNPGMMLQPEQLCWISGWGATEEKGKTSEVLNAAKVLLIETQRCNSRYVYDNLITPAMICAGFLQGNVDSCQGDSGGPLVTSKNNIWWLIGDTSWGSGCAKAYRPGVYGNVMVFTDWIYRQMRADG
# [9] = Cytotoxicity CC50 in Calu-3 lung epithelial cells; type: cell-based, human; details: human; Calu-3 lung epithelial cells, n = 2; read-out: CC50 in Calu-3 cells
# T1 sequence (P09958 108-794): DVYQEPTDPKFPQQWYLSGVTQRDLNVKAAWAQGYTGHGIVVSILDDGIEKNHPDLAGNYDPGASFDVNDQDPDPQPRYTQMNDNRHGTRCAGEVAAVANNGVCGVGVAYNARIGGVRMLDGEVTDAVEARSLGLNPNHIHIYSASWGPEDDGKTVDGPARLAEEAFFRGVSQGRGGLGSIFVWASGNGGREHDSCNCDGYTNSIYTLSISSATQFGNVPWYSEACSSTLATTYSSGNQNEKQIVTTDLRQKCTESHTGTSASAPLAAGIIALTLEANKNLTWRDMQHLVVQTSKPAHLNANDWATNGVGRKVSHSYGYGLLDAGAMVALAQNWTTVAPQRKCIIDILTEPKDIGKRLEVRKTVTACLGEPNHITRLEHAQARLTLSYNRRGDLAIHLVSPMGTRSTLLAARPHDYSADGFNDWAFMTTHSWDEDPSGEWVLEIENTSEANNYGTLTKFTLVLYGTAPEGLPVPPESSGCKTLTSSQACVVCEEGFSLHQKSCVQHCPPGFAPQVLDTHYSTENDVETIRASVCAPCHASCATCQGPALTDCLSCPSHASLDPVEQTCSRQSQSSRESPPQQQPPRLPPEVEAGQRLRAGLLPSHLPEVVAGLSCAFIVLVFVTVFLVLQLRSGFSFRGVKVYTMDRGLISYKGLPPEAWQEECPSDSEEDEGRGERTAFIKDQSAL
smiles,measurement,setting,value
N=C(N)NCCCCC(=O)N[C@@H](CCC(N)=O)C(=O)N[C@@H](Cc1ccccc1)C(=O)N[C@@H](CCCNC(=N)N)C(=O)c1nc2ccccc2s1 [Compound N-00130],Ki,"[1]; single experiments N1-N3, Figure 1D, read-out: Individual Ki, Furin",> 10 µM
same,Ki,"[2]; single experiments N1-N4, Figure 1D, read-out: Individual Ki, Cathepsin L",> 10 µM
same,Ki,"[3]; single experiments N1-N3, Figure 1D, read-out: Individual Ki, Thrombin",7.56 µM and > 10 µM and 7.14 µM
same,Ki,[4],0.154 nM and 0.0954 nM and 0.153 nM
same,Ki,[5],0.221 nM and 0.323 nM and 0.606 nM
same,Ki,"[6]; single experiments N1-N3, Figure 1D, read-out: Individual Ki, Desc1",16.4 nM and 37.9 nM and 30.4 nM
"CC(=O)NC(CCC(N)=O)C(=O)NC(Cc1ccccc1)C(=O)NC(CCCNC(=N)N)C(=O)c1nc2ccccc2s1 (stereo not drawn) [Compound N-0386, Ac-QFR-kbt]",Nucleocapsid,"[7]; Figure 2a, two replicates, DMSO control about 91-94",0.1229 and 1.4208
same,dsRNA,"[7]; Figure 2a, two replicates, DMSO control about 93-95",0.2037 and 0
same,EC50,"[7]; Severe acute respiratory syndrome coronavirus 2, Calu-3, read-out: SARS-CoV-2 VIDO Nucleocapsid EC50 ± SE",2.3 ± 1.7 nM
same,inhibition at 0.1 µM,"[7]; Severe acute respiratory syndrome coronavirus 2, Calu-3, read-out: inhibition of SARS-CoV-2 infection",> 99%
same,"Figure 2b dose-response, Mean",[7]; log [C] (nM) 0.20412,63.391
same,"Figure 2b dose-response, Mean",[7]; log [C] (nM) 0.90309,26.1724
same,"Figure 2b dose-response, Mean",[7]; log [C] (nM) 1.60206,7.727
same,"Figure 2b dose-response, Mean",[7]; log [C] (nM) 2.30103,6.997
same,"Figure 2b dose-response, Mean",[7]; log [C] (nM) 3,2.833
same,"Figure 2b dose-response, Mean",[7]; log [C] (nM) -0.49485,81.0636
same,"Figure 2b dose-response, Mean",[7]; log [C] (nM) -1.19382,95.046
same,TMPRSS2 activity (%),"[8]; Figure 1B, single experiments N1-N3",22.2147% and 27.837% and 33.2674%
same,inhibition at 0.01 µM,"[8]; Vero C1008, 10 nM compound, 24 h, vs untreated/vehicle TMPRSS2-expressing Vero E6 cells, read-out: inhibition of TMPRSS2 activity (reduction of substrate proteolysis)",73%
same,Ki,"[1]; mean ± s.d., max concentration 10 µM, read-out: Ki Furin",> 10 µM
same,Ki,"[2]; mean ± s.d., max concentration 10 µM, read-out: Ki Cathepsin L",7.72 ± 0.142 µM
same,Ki,"[3]; mean ± s.d., max concentration 10 µM, read-out: Ki Thrombin",> 10 µM
same,CC50 at 24 h,[9],1.88 mM
same,Ki,"[6]; mean ± s.d., max concentration 10 µM, read-out: Ki DESC1",9.1 ± 1.9 nM
